Laboratory results published in patent publication EP4588995A1, “IMPROVEMENT OF SOLUBILITY OF CHOLINE CARBOXYLATES IN BASE OILS” (OLEON NV, priority 2024, dated 2025).

Assay: Resistivity of blends according to standard ASTM D1169
Assay type: physicochemical
Experimental: The resistivity ability of blends was evaluated according to the standard ASTM […].

CCCCCCCC/C=C\CCCCCCCC(=O)OCC(COC(=O)CCCCCCC/C=C\CCCCCCCC)(COC(=O)CCCCCCC/C=C\CCCCCCCC)COC(=O)CCCCCCC/C=C\CCCCCCCC [Pentaerythritol tetraoleate]
Resistivity: 12.00 10^10 Ωcm
